Experimental data as given in ChEMBL document CHEMBL1149943, “2-aminoalchohol immunosuppressants: Structure-activity relationships” (Bioorg Med Chem Lett, 1996).

Organism: Mus musculus
Assay: Compound was tested for its effect on mouse allogenic mixed lymphocyte reaction(MLR).
Type: functional, organism-based
For CCCCCCCCc1ccc(CC[C@@H](N)CO)cc1, the IC50 was 108 nM. Work on CCCCCCCCCCCCCC[C@H](N)CO yielded an IC50 of 137 nM. Molecule CCCCCCCCCCCCCC[C@@H](N)CO has an IC50 of 68.8 nM. Work on CCCCCCCCc1ccc(CC[C@H](N)CO)cc1 yielded an IC50 of 427 nM. For CCCCCCCCCCCCCCCCCC[C@H](N)CO, the IC50 was 1390 nM. CCCCCCCCCCCCCCCCCC[C@@H](N)CO showed an IC50 of 533 nM. With CCCCCCCCc1ccc(CCC(N)CO)cc1 (stereo not given) the IC50 was 211 nM. In the case of CCCCCCCCCCCCCCC(N)CO (racemic), the IC50 is reported as 98.3 nM. In the case of CCCCCCCCCCCCCCCCCCC(N)CO (racemic), the IC50 is reported as 867 nM. CCCCCCCCc1ccc(CCC(N)(CO)CO)cc1 [FINGOLIMOD] was tested, and the IC50 was 67.4 nM.
